Values of other authors, collected in patent publication US20260258420A1, “COMPOSITIONS AND METHODS FOR THE TREATMENT OF HUMAN PAPILLOMAVIRUS-DRIVEN CANCERS” (priority 2023, published 2026).

Legend:
SiHa = conditions: cited from earlier work
ME180 = conditions: cited from earlier work
CaSki = conditions: cited from earlier work
Vu147T = conditions: cited from earlier work
UPCI-SCC-090 = conditions: cited from earlier work
UDSCC2 = conditions: cited from earlier work
[1] = HNSCC patients who received 100 mg/m^2; read-out: plasma Cmax; cited from earlier work

In the case of `N.N.[Cl][Pt][Cl]` [cisplatin], the IC50 (SiHa) is listed as 28 µM, the IC50 (ME180) is listed as 12 µM and the IC50 (CaSki) is listed as 15 µM. The IC50 (Vu147T) was 11.2 µM, the IC50 (UPCI-SCC-090) was 11.1 µM and the IC50 (UDSCC2) was 18 µM. The Cmax [1] was 11 µM.
